Key:
[1] = Solubility in PGME, PGMEA and ethyl lactate; type: physicochemical; settings: for solubility (in words): photopolymerization initiator containing the compound; for Solubility Ethyl lactate: in 100 parts by weight of ethyl lactate; for Solubility Ethyl lactate / Solubility PGMEA / Solubility PGME: room temperature; for Solubility PGMEA: in 100 parts by weight of propylene glycol monomethyl ether acetate; for Solubility PGME: in 100 parts by weight of propylene glycol monomethyl ether
Procedure: An evaluation for solubility was performed in accordance with the following evaluation criteria based on the dissolution amount.
A: 10 Parts by weight or more of the photopolymerization initiator is dissolved.
B: An amount in the range of from 5 parts by weight or more to less than 10 parts by weight of the photopolymerization initiator is dissolved.
C: An amount in the range of from 2 parts by weight or more to less than 5 parts by weight of the photopolymerization initiator is dissolved.
D: Less than 2 parts by weight of the photopolymerization initiator is dissolved.

[2] = Evaluation 1: 20-μm pattern line width of transparent photosensitive composition; settings: for sensitivity to the active energy ray (in words): photopolymerization initiator containing the compound; for 20-μm pattern line width: transparent composition, initiator 0.4 mmol
Procedure: After that, the mixture was filtered with a membrane filter having an aperture of 5 μm to provide a photosensitive composition.
It should be noted that the fluorene-based compound as a photopolymerization initiator was used in such an amount that its molar quantity was kept constant in the respective examples and comparative examples.
The glass substrate after the application was dried with a fan dryer at 90° C. for 10 minutes. Thus, a coating film (photosensitive layer) was formed. Next, the film was exposed to light having an exposure energy quantity of 5 mJ/cm^2, 10 mJ/cm^2, 20 mJ/cm^2, 40 mJ/cm^2, 60 mJ/cm^2, or 80 mJ/cm^2 by using a high-pressure mercury lamp (manufactured by Karl Suss, trade name: “MASK ALIGNER”) through a negative mask (mask width: 20 μm). Next, the resultant was immersed in a 0.1 wt % aqueous solution of tetramethylammonium hydroxide (TMAH) and then rinsed with pure water. The remaining cured film was subjected to the following evaluation.
(§1) A larger value for the line width means higher sensitivity.

[3] = Average transmittance of composition; type: physicochemical; settings: photosensitive composition, quartz cell, optical path length 1 cm
Procedure: The average transmittance (%) of each of the photosensitive resin compositions obtained in Examples 1 to 9, Examples 2-1 to 2-10, and Comparative Examples 1 and 2 in the range of from 400 nm to 700 nm was measured with a spectrophotometer (manufactured by Hitachi High-Technologies Corporation, trade name: “U-3900H”, quartz cell, optical path length; 1 cm).

[4] = Transmittance of transparent cured film; type: physicochemical; settings: for Average transmittance (700 nm to 400 nm) Transparent cured film / Transmittance (400 nm) Transparent cured film: cured at exposure energy quantity 80 mJ/cm^2; for transparency of photosensitive composition and formed product (in words): photopolymerization initiator containing the compound
Procedure: Transparent cured films were formed by using the photosensitive compositions obtained in Examples 1 to 9, Examples 2-1 to 2-10, and Comparative Examples 1 and 2 in the same manner as in the evaluation 1 except that the exposure energy quantity was set to 80 mJ/cm^2. The transmittance (%) of each of the resultant transparent cured films at 400 nm and the average transmittance (%) thereof in the range of from 400 to 700 nm were measured with a spectrophotometer (manufactured by Hitachi High-Technologies Corporation, trade name: “U-3900H”, quartz cell, optical path length; 1 cm). A higher transmittance at 400 nm means less coloring with a yellow color. In addition, a higher transmittance of a coating film means a higher transmitting property of a pattern to be formed.

[5] = Evaluation 3: 20-μm pattern line width of black photosensitive composition; settings: black composition (carbon black, cardo resin), initiator 0.4 mmol
Description: The mixture was filtered with a membrane filter having an aperture of 5 μm to provide a photosensitive composition.
Photosensitive compositions were each obtained in the same manner as in Example 10 except that the used fluorene-based compound and its usage were changed as shown in Table 5.
Each of the photosensitive compositions obtained in Examples 10 to 15, Examples 2-11 to 2-20, and Comparative Example 3 was applied onto a glass substrate with a spin coater (manufactured by Kyowariken Co., Ltd., trade name: “K-359SD1”) so that its thickness after drying became 1.0 μm. The glass substrate after the application was dried with a fan dryer at 90° C. for 10 minutes. Thus, a coating film (photosensitive layer) was formed. Next, the film was exposed to light having an exposure energy quantity of 10 mJ/cm^2, 20 mJ/cm^2, 40 mJ/cm^2, 60 mJ/cm^2, or 80 mJ/cm^2 by using a high-pressure mercury lamp (manufactured by Karl Suss, trade name: “MASK ALIGNER”) through a negative mask (mask width: 20 μm). Next, the resultant was immersed in a 0.1 wt % aqueous solution of tetra methyl ammonium hydroxide (TMAH) and then rinsed with pure water. The remaining cured film was subjected to the following evaluation. In addition, FIGS. 2, 3, and 6 show microscope photographs of black cured films obtained by using the photosensitive compositions of Examples 10 and 11, and Comparative Example 3, and FIGS. 7 to 11 show microscope photographs of black cured films obtained by using the photosensitive compositions of Examples 2-11, 2-13, 2-14, 2-17, and 2-18.
as §1

[6] = Absorption coefficient (absorbance of 0.001% solution in tetrahydrofuran); type: physicochemical; settings: for Λ max (absorption maximum wavelength): 0.001% (wt/vol) in tetrahydrofuran, from 280 nm to 400 nm; for Absorption coefficient at 365 nm / Absorption coefficient at Λ max: 0.001% (wt/vol) solution in tetrahydrofuran
Procedure: A 0.001% (wt/vol) solution of each of the compounds 1, 2, 4, 6, 8, 9, 11, 12, 13, 15, 16, D-1, D-3, D-4, D-7, D-8, D-9, D-12, D-14, D-15, D-20, C-1, and C-2 in tetrahydrofuran was prepared, and its absorbance was measured with a spectrophotometer (manufactured by Hitachi High-Technologies Corporation, trade name: “U-3900H”). An absorption maximum wavelength (Amax) at a wavelength of from 280 nm to 400 nm was read from an absorption spectrum obtained with the spectrophotometer.

[7] = Decomposition point by thermal analysis (TG-DTA); type: physicochemical; settings: 5.0 mg
Procedure: The compounds 1, 2, 4, 6, 8, 9, 11, 12, 13, 15, 16, D-1, D-3, D-4, D-7, D-8, D-9, D-12, D-14, D-15, D-20, C-1, and C-2 were each subjected to measurement with a thermal analysis apparatus (TG-DTA) (manufactured by Rigaku Corporation, trade name: “Thermo Plus EVO TG 8120”) by using 5.0 mg thereof.

[8] = exposure energy quantity 10 mJ/cm^2
[9] = exposure energy quantity 20 mJ/cm^2
[10] = exposure energy quantity 40 mJ/cm^2
[11] = exposure energy quantity 60 mJ/cm^2
[12] = exposure energy quantity 80 mJ/cm^2

SMILES	sensitivity to the active energy ray (in words) [2]	20-μm pattern line width [2, 8]	20-μm pattern line width [2, 9]	20-μm pattern line width [2, 10]	20-μm pattern line width [2, 11]	20-μm pattern line width [2, 12]	Average transmittance (700 nm to 400 nm) Solution [3] [%]	Average transmittance (700 nm to 400 nm) Transparent cured film [4] [%]	Transmittance (400 nm) Transparent cured film [4] [%]	20-μm pattern line width ([5]; 10 mJ/cm^2)	20-μm pattern line width ([5]; 20 mJ/cm^2)	20-μm pattern line width ([5]; 40 mJ/cm^2)	20-μm pattern line width ([5]; 60 mJ/cm^2)	20-μm pattern line width ([5]; 80 mJ/cm^2)	further results
CCCCCCC1(CCCCCC)c2cc(C(=O)c3ccccc3)ccc2-c2ccc(C(C)=NOC(C)=O)cc21 [Compound 8]	additionally high sensitivity to the active energy ray	19.6	20.1	21.7	22.7	23.0	95.4	100.0	100.0	19.6	20.1	21.7	22.7	23.0	solubility (in words) [1]: additionally excellent solubility; transparency of photosensitive composition and formed product (in words) [4]: additionally excellent transparency
CCCCCCC1(CCCCCC)c2cc(C(=O)c3ccccc3C)ccc2-c2ccc(C(C)=NOC(C)=O)cc21 [Compound 6]		19.7	20.2	21.1	21.7	22.7	95.4	97.3	99.6	19.7	20.2	21.1	21.7	22.7	transparency of photosensitive composition and formed product (in words) [4]: additionally excellent transparency
CCCC1(CCC)c2ccccc2-c2ccc(/C(C)=N/OC(C)=O)cc21 [Compound 15]															Λ max (absorption maximum wavelength) [6]: 315.0 nm; Absorption coefficient at 365 nm [6]: 0.0 mL/mg/cm; Absorption coefficient at Λ max [6]: 70.0 mL/mg/cm; Decomposition point [7]: 280.0 °C; Solubility Ethyl lactate [1]: D (Less than 2 parts by weight of the photopolymerization initiator is dissolved.); Solubility PGMEA [1]: C (An amount in the range of from 2 parts by weight or more to less than 5 parts by weight of the photopolymerization initiator is dissolved.); Solubility PGME [1]: D (Less than 2 parts by weight of the photopolymerization initiator is dissolved.)
CCCC1(CCC)c2cc(C(=NOC(C)=O)c3ccc(C(C)(C)C)cc3)ccc2-c2ccc([N+](=O)[O-])cc21 [Compound D-2]	additionally high sensitivity to the active energy ray									19.4	20.4	21.6	22.1	23.0	
CCCC1(CCC)c2cc(C(=NOC(C)=O)c3ccccc3C)ccc2-c2ccc([N+](=O)[O-])cc21 [Compound 1]	additionally high sensitivity to the active energy ray	20.7	21.6	22.6	23.3	23.8	88.7	99.3	92.0	20.2	21.2	22.1	23.2	23.3	solubility (in words) [1]: additionally excellent solubility
CCCCCCC1(CCCCCC)c2cc(C(=NOC(C)=O)c3ccccc3C)ccc2-c2ccc([N+](=O)[O-])cc21 [Compound 2]	additionally high sensitivity to the active energy ray	21.4	22.3	22.9	23.9	24.4	87.5	99.3	92.8		20.9	22.1	22.8	23.3	
CC(=O)ON=C(C)c1ccc2c(c1)Cc1ccccc1-2 [Compound 16]															Λ max (absorption maximum wavelength) [6]: 296.5 nm; Absorption coefficient at 365 nm [6]: 0.1 mL/mg/cm; Absorption coefficient at Λ max [6]: 97.7 mL/mg/cm; Decomposition point [7]: 240.9 °C; Solubility Ethyl lactate [1]: C (An amount in the range of from 2 parts by weight or more to less than 5 parts by weight of the photopolymerization initiator is dissolved.); Solubility PGMEA [1]: B (An amount in the range of from 5 parts by weight or more to less than 10 parts by weight of the photopolymerization initiator is dissolved.); Solubility PGME [1]: B (An amount in the range of from 5 parts by weight or more to less than 10 parts by weight of the photopolymerization initiator is dissolved.)

Reference: patent US9684238B2, “Fluorene-type compound, photopolymerization initiator comprising said fluorene-type compound, and photosensitive composition containing said photopolymerization initiator” (TOKYO OHKA KOGYO CO., LTD., priority 2012, dated 2017)
